Where two headings read alike, the source gives them in different places.
Tests used:
E. faecalis Phillips = test: MIC, microbroth dilution (NCCLS), Table 1; assay type: cell-based; details: Enterococcus faecalis
Description: (§1) The minimum inhibitory concentration (MIC) of the compounds was determined using the microbroth dilution technique in accordance with NCCLS guidelines, employing Mueller-Hinton broth (National Committee for Clinical Laboratory Standards, NCCLS, 1995 “Methods for dilution antimicrobial susceptibility tests for bacteria that grow aerobically”—approved standard M7-A5).
(§2) The compounds were tested in isolation, at different concentrations.

E. faecium NCTC 7171 = test: MIC, microbroth dilution (NCCLS), Table 1; assay type: cell-based; details: Enterococcus faecium, NCTC7171
Description: as §1, §2

E. faecalis NCTC 5957 = test: MIC, microbroth dilution (NCCLS), Table 1; assay type: cell-based; details: Enterococcus faecalis, NCTC5957
Description: as §1, §2

E. faecalis 24592 = test: MIC, microbroth dilution (NCCLS), Table 1; assay type: cell-based; details: Enterococcus faecalis, 24592
Description: as §1, §2

E. faecalis SFZ = test: MIC, microbroth dilution (NCCLS), Table 1; assay type: cell-based; details: Enterococcus faecalis
Description: as §1, §2

E. hirae ATCC 10541 = test: MIC, microbroth dilution (NCCLS), Table 1; assay type: cell-based; details: Enterococcus hirae, ATCC10541
Description: as §1, §2

[1] = tested on: E. faecalis SFZ (vancomycin-sensitive isolate, VSE); test: Time-kill experiment (viable count); assay type: cell-based; details: FIG. 2, ceftazidime alone at 128 mg/L, PFOB alone at 64 mg/L
Excerpt: FIG. 2 is a graph of Log viable count (cfu per ml) against time (in hours) for the VSE isolate in the presence or absence of the drugs. […] The isolates used in the Example are purely illustrative and not especially unusual.

E. faecalis ATCC 29212 = test: Checkerboard microdilution MIC with PFOB, Table 2; assay type: cell-based
How it was run: (§3)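 Checkerboard microdilution pairing PFOB with other antibiotics. Synergy scored by FIC index: combination FIC <0.5 synergy, 0.5-2.0 indifference, >2 antagonism, with synergy requiring at least a 4-fold reduction for each compound.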

E.faecalis 78097 (van B) = test: Checkerboard microdilution MIC with PFOB, Table 2; assay type: cell-based
How it was run: as §3

E. faecalis 5659 (vanA) = test: Checkerboard microdilution MIC with PFOB, Table 2; assay type: cell-based; details: E. faecalis 5659 (vanA)
How it was run: as §3

Enterococcus strains = test: MIC against Enterococcus strains, summary of Example 1; assay type: cell-based; details: for MIC: Enterococcus, vancomycin-susceptible strains and one vancomycin-resistant strain
Description: as §1, §2

E. faecalis ATCC 10541 = test: Checkerboard microdilution MIC with PFOB, Table 2; assay type: cell-based; details: for MIC: Enterococcus faecalis, ATCC10541
Excerpt: The aim of the study was to detect any synergy between PFOB and the other antibiotics. For the purposes of the study, synergy was defined in accordance with the FIC (fractional inhibitory concentration) index, as disclosed by Lorian (1991, In “Antibiotics in Laboratory Medicine” 3rd edition, Eds. Williams & Wilkins; esp. p 434-443).

VRE 300 2043 = test: MIC, microbroth dilution (NCCLS), Table 1; assay type: cell-based, Enterococcus; details: Enterococcus, VRE
Description: as §1, §2

VRE 300 1562 = test: MIC, microbroth dilution (NCCLS), Table 1; assay type: cell-based, Enterococcus; details: Enterococcus, VRE
Description: as §1, §2

VRE 300 1590 = test: MIC, microbroth dilution (NCCLS), Table 1; assay type: cell-based, Enterococcus; details: Enterococcus, VRE
Description: as §1, §2

VRE 1662 = test: MIC, microbroth dilution (NCCLS), Table 1; assay type: cell-based, Enterococcus; details: Enterococcus, VRE
Description: as §1, §2

For `CC(C)(O/N=C(\C(=O)N[C@@H]1C(=O)N2C(C(=O)[O-])=C(C[n+]3ccccc3)CS[C@H]12)c1csc(N)n1)C(=O)O` [CAZ, ceftazidime], the MIC (E. faecalis Phillips) was > 128 µg/mL, the MIC (E. faecium NCTC 7171) was > 128 µg/mL and the MIC (E. faecalis NCTC 5957) was > 128 µg/mL. For the same compound, the MIC (E. faecalis 24592) was > 128 µg/mL, the MIC (E. faecalis SFZ) was > 128 µg/mL and the MIC (E. hirae ATCC 10541) was > 128 µg/mL. The “effect on growth (viable count, time-kill)” value [1] was “some inhibitory effect on growth”, the “Synergy FIC” value (E. faecalis ATCC 29212; E. faecalis ATCC 29212, FIC index of PFOB + labelled partner, <0.5 = synergy) was 0.188 and the “MIC of partner antibiotic in the presence of PFOB at 0.5 mg/L” value (“MIC of partner antibiotic … at 0.5 mg/L” below) (E. faecalis ATCC 29212; E. faecalis ATCC 29212, PFOB 0.5 mg/L) was >64 mg/L. For the same compound, the “MIC of partner antibiotic in the presence of PFOB at 1 mg/L” value (“MIC of partner antibiotic … at 1 mg/L” below) (E. faecalis ATCC 29212; E. faecalis ATCC 29212, PFOB 1 mg/L) was >64 mg/L, the “MIC of partner antibiotic in the presence of PFOB at 2 mg/L” value (from here on “MIC of partner antibiotic … at 2 mg/L”) (E. faecalis ATCC 29212; E. faecalis ATCC 29212, PFOB 2 mg/L) was >64 mg/L and the “MIC of partner antibiotic in the presence of PFOB at 4 mg/L” value (shortened to “MIC of partner antibiotic … at 4 mg/L”) (E. faecalis ATCC 29212; E. faecalis ATCC 29212, PFOB 4 mg/L) was 32 mg/L. For the same compound, the “MIC of partner antibiotic in the presence of PFOB at 8 mg/L” value (“MIC of partner antibiotic … at 8 mg/L” below) (E. faecalis ATCC 29212; E. faecalis ATCC 29212, PFOB 8 mg/L) was 16 mg/L, the “MIC of partner antibiotic in the presence of PFOB at 16 mg/L” value (from here on “MIC of partner antibiotic … at 16 mg/L”) (E. faecalis ATCC 29212; E. faecalis ATCC 29212, PFOB 16 mg/L) was 8 mg/L and the “MIC of partner antibiotic in the presence of PFOB at 32 mg/L” value (“MIC of partner antibiotic … at 32 mg/L” below) (E. faecalis ATCC 29212; E. faecalis ATCC 29212, PFOB 32 mg/L) was 2 mg/L. The MIC (E. faecalis ATCC 29212; Enterococcus faecalis, ATCC29212, E. faecalis ATCC 29212, partner antibiotic alone, read-out: MIC (alone) of Partner) was > 64 µg/mL, the “synergy with PFOB” value (E. faecalis ATCC 29212; checkerboard, E. faecalis ATCC 29212, vancomycin-susceptible, in words) was “marked synergy” and the “Synergy FIC” value (E.faecalis 78097 (van B); E.faecalis 78097 (van B), FIC index of PFOB + labelled partner, <0.5 = synergy) was 0.156. For the same compound, the “MIC of partner antibiotic … at 0.5 mg/L” value (E.faecalis 78097 (van B); E.faecalis 78097 (van B), PFOB 0.5 mg/L) was >64 mg/L, the “MIC of partner antibiotic … at 1 mg/L” value (E.faecalis 78097 (van B); E.faecalis 78097 (van B), PFOB 1 mg/L) was >64 mg/L and the “MIC of partner antibiotic … at 2 mg/L” value (E.faecalis 78097 (van B); E.faecalis 78097 (van B), PFOB 2 mg/L) was 32 mg/L. For the same compound, the “MIC of partner antibiotic … at 4 mg/L” value (E.faecalis 78097 (van B); E.faecalis 78097 (van B), PFOB 4 mg/L) was 16 mg/L, the “MIC of partner antibiotic … at 8 mg/L” value (E.faecalis 78097 (van B); E.faecalis 78097 (van B), PFOB 8 mg/L) was 16 mg/L and the “MIC of partner antibiotic … at 16 mg/L” value (E.faecalis 78097 (van B); E.faecalis 78097 (van B), PFOB 16 mg/L) was 8 mg/L. The “MIC of partner antibiotic … at 32 mg/L” value (E.faecalis 78097 (van B); E.faecalis 78097 (van B), PFOB 32 mg/L) was 4 mg/L, the “MIC of PFOB & Partner: Partner concentration” value (E.faecalis 78097 (van B); E.faecalis 78097 (van B), optimum synergistic combination with PFOB, second figure (partner)) was 16 mg/L and the MIC (E.faecalis 78097 (van B); Enterococcus faecalis, E.faecalis 78097 (van B), partner antibiotic alone, read-out: MIC (alone) of Partner) was > 64 µg/mL. The “synergy with PFOB” value (E.faecalis 78097 (van B); checkerboard, E. faecalis 78097, vanB-mediated vancomycin resistance, in words) was “Synergy was also observed”, the “MIC of partner antibiotic … at 0.5 mg/L” value (E. faecalis 5659 (vanA); PFOB 0.5 mg/L) was >64 mg/L and the “MIC of partner antibiotic … at 1 mg/L” value (E. faecalis 5659 (vanA); PFOB 1 mg/L) was >64 mg/L. The “MIC of partner antibiotic … at 2 mg/L” value (E. faecalis 5659 (vanA); PFOB 2 mg/L) was >64 mg/L, the “MIC of partner antibiotic … at 4 mg/L” value (E. faecalis 5659 (vanA); PFOB 4 mg/L) was >64 mg/L and the “MIC of partner antibiotic … at 8 mg/L” value (E. faecalis 5659 (vanA); PFOB 8 mg/L) was >64 mg/L. The “MIC of partner antibiotic … at 16 mg/L” value (E. faecalis 5659 (vanA); PFOB 16 mg/L) was >64 mg/L, the “MIC of partner antibiotic … at 32 mg/L” value (E. faecalis 5659 (vanA); PFOB 32 mg/L) was 0.25 mg/L and the MIC (E. faecalis 5659 (vanA); Enterococcus faecalis, partner antibiotic alone, read-out: MIC (alone) of Partner) was > 64 µg/mL. The MIC (Enterococcus strains; read-out: MIC of CAZ used in conjunction with PFOB, PFOB at 4 mg/L) was < 0.06 µg/mL, the MIC (Enterococcus strains; read-out: MIC of CAZ used in isolation) was > 128 µg/mL and the “reduction in the MIC of CAZ by PFOB” value (Enterococcus strains; PFOB at 4 mg/L versus CAZ in isolation) was “about 2,000 fold”. The “activity in isolation against the Enterococcus strains tested” value (Enterococcus strains; compound alone, all strains of Table 1, in words) was “no activity”, the “MIC of partner antibiotic … at 0.5 mg/L” value (E. faecalis ATCC 10541; E. faecalis ATCC 10541, PFOB 0.5 mg/L) was >64 mg/L and the “MIC of partner antibiotic … at 1 mg/L” value (E. faecalis ATCC 10541; E. faecalis ATCC 10541, PFOB 1 mg/L) was >64 mg/L. For the same compound, the “MIC of partner antibiotic … at 2 mg/L” value (E. faecalis ATCC 10541; E. faecalis ATCC 10541, PFOB 2 mg/L) was >64 mg/L, the “MIC of partner antibiotic … at 4 mg/L” value (E. faecalis ATCC 10541; E. faecalis ATCC 10541, PFOB 4 mg/L) was >64 mg/L and the “MIC of partner antibiotic … at 8 mg/L” value (E. faecalis ATCC 10541; E. faecalis ATCC 10541, PFOB 8 mg/L) was 8 mg/L. The “MIC of partner antibiotic … at 16 mg/L” value (E. faecalis ATCC 10541; E. faecalis ATCC 10541, PFOB 16 mg/L) was 4 mg/L, the “MIC of partner antibiotic … at 32 mg/L” value (E. faecalis ATCC 10541; E. faecalis ATCC 10541, PFOB 32 mg/L) was <0.06 mg/L and the MIC (E. faecalis ATCC 10541; E. faecalis ATCC 10541, optimum synergistic combination of PFOB with the labelled partner, first figure (PFOB), read-out: MIC of PFOB & Partner: PFOB concentration) was 8 µg/mL. For the same compound, the MIC (E. faecalis ATCC 10541; E. faecalis ATCC 10541, optimum synergistic combination with PFOB, second figure (partner), read-out: MIC of PFOB & Partner: Partner concentration) was 8 µg/mL, the MIC (E. faecalis ATCC 10541; E. faecalis ATCC 10541, partner antibiotic alone, read-out: MIC (alone) of Partner) was > 64 µg/mL and the “synergy with PFOB” value (E. faecalis ATCC 10541; checkerboard, E. faecium ATCC 10541 (as named), vancomycin-susceptible, in words) was “marked synergy”. For the same compound, the MIC (VRE 300 2043) was > 128 µg/mL, the MIC (VRE 300 1562) was > 128 µg/mL and the MIC (VRE 300 1590) was > 128 µg/mL. The MIC (VRE 1662) was > 128 µg/mL.

Source: patent US20040176349A1, “Antibacterial composition” (priority 2001, published 2004)
